Source: patent US20240368133A1, “Compounds for the Treatment of Pain, in Particular, Neuropathic Pain, and/or Other Diseases or Disorders that are Associated with AT2R and/or AT2R Mediated Signaling” (Confo Therapeutics N.V., priority 2021, published 2024)

Legend:
[1] = Thermodynamic solubility protocol 1 (PBS pH 7.4, citrate buffer pH 3.0); type: physicochemical; details: 25° C.
Protocol: In a 8 mL glass vial, 1-2 mg of dry matter of the test compound were mixed with the suitable buffers (phosphate-buffered saline pH 7.4 (138 mM NaCl, 2.7 mM KCl, 10 mM K-phosphate) or 100 mM citrate buffer pH 3.0) to reach a theoretical concentration of 4 mM. The solutions were allowed to further equilibrate at 25° C. on a thermostatic shaker. After 4 and 24 hours of shaking, respectively, the incubation mixtures were filtered through HTS filter plates using a vacuum manifold. The filtrates of test compounds were diluted 2-fold with acetonitrile with 4% DMSO before measuring. In parallel, using a 20 mM DMSO stock solution, compound dilutions in 50% acetonitrile/buffer were prepared to the theoretical concentrations of 0 μM (blank), 10 μM, 25 μM, 50 μM, 100 μM and 200 μM with 2% final DMSO to generate calibration curves.
Ondansetron (Sigma Aldrich USA, cat #03639) was used as a reference to control proper assay performance. 200 μl of each sample were transferred to a 96-well plate and solubility was measured in a 200-550 nm range (in steps of 5 nm). The measurements were performed using a Spectra Max Plus reader in UV-Vis mode. Acquisition and analysis of the data were performed using SoftMax Pro v.5.4 (Molecular Devices) and Excel 2010 data analysis software. Proper absorbance wavelengths for calculations were selected for each compound manually based on absorbance maximums (absolute absorbance unit values for the minimum and maximum concentration points within 0-3 OD range). Each of the final datasets was additionally visually evaluated by the operator and goodness of fit (R2) is calculated for each calibration curve.

[2] = Thermodynamic solubility protocol 2 (FaSSIF, FeSSIF); type: physicochemical; details: 25° C.
Protocol: In a 8 mL glass vial, 1-2 mg of dry matter of the test compound were mixed with the suitable buffers (Fed State Simulated Intestine Fluid (FeSSIF) or Fasted State Simulated Intestine Fluid (FaSSIF)) to reach a theoretical concentration of 4 mM. The solutions were allowed to further equilibrate at 25° C. on a thermostatic shaker. After 4 and 24 hours of shaking, respectively, the incubation mixtures were filtered through HTS filter plates using a vacuum manifold. The filtrates of test compounds were diluted 500-fold with acetonitrile/buffer mixtures with 2% DMSO before measuring. In parallel, using a 20 mM DMSO stock solution, compound dilutions in 50% acetonitrile/buffer (v/v) were prepared to the theoretical concentrations of 0 μM (blank), 10 μM, 25 μM, 50 μM, 100 μM and 200 μM with 2% final DMSO to generate calibration curves. Calibration standards were diluted 100-fold with 50% acetonitrile/water (v/v) mixes before LC-MS/MS measurement (systems API4000 QTRAP).

[3] = Liver microsomal stability, dog; type: in vitro ADME; details: male, Beagle, pH 7.4, liver microsomes
Protocol: Mouse hepatic microsomes were isolated from pooled, perfused livers of male CD1 mice. Rat hepatic microsomes were isolated from pooled, perfused livers of male Sprague Dawley rats. Dog hepatic microsomes were isolated from pooled, perfused livers of male Beagle dogs. The batches of microsomes were tested for quality control using Testosterone, Propranolol and Caffeine as reference compounds.
A 10 mM stock solution of compound in DMSO is diluted three-fold in DMSO. This pre-diluted compound solution is then further diluted to 2 μM in a 50 mM phosphate buffer (PBS, pH 7.4) and pre-warmed at 37° C. This compound dilution is mixed F2 with microsomal/cofactor mix at 37° C. under shaking at 300 rpm. Final reaction conditions are: 100 μL incubation volume, 1 μM of test compound (in duplicate), <0.1% DMSO, 0.5 mg/mL microsomes, 0.6 U/mL Glucose-6-phosphate-dehydrogenase (G6PDH, Roche, 10127671001), 3.3 mM MgCl2 (Sigma, M2670), 3.3 mM glucose-6-phosphate (Sigma, G-7879) and 1.3 mM NADP+ (Sigma, N-0505).
After 60 min of incubation at 300 rpm and 37° C., the reaction was stopped with 3 volumes of STOP solution (acetonitrile/MeOH 2/1 with diclofenac as internal standard). For the time point zero, 3 volumes of STOP solution were added to the compound dilution before the microsome mix was added. Six time points over 60 minutes have been analyzed. The samples of all time points were centrifuged, filtered and the supernatant analyzed by LCMS/MS (systems API4000).
The instrument responses (peak areas/IS peak area) were referenced to the zero time-point samples (considered as 100%) in order to determine the percentage of compound remaining.
Testosterone (1 μM) and Propranolol and Caffeine (1 μM) were used as reference compounds, being unstable and stable compounds respectively. If the microsomal stability values for these controls are not in the range determined by the historical data, the assay is not validated. The solubility of the compound in the final test concentration in 50 mM buffer pH 7.4 is checked by microscope to indicate whether precipitation is observed or not. If a precipitate is observed, no data of microsomal stability is generated.

[4] = Metabolic stability in hepatocytes, dog; type: in vitro ADME; details: Beagle, pooled cryopreserved hepatocytes, read-out: Dog Clint (μL/min/10^6 cells)
Protocol: The aim of this assay is to determine the metabolic stability of the compound in hepatocytes (cryopreserved) of different species (mouse CD1, rat Sprague Dawley, dog Beagle). Low hepatocyte stability may result in the formation of unwanted metabolites, high clearance, and therefore is not desirable. The decrease in parent was assessed by measuring the percentage remaining by LC-MS/MS analysis. The batches of hepatocytes were tested for quality control using Testosterone, Umbelliferone and Caffeine as reference compounds.
A 10 mM stock solution of test compound in DMSO was first diluted in DMSO to 3 mM, and then in modified Krebs-Henseleit buffer (Sigma, K3753) to 5 μM. This compound dilution was added to a suspension of pooled cryopreserved hepatocytes (BioIVT) at 37° C. under gentle shaking. […]
After 0, 10, 20, 45, 90, 120 and 180 min of incubation, the reaction was terminated with 3 volumes of MeCN:MeOH (2:1) containing diclofenac as analytical internal standard. Samples were mixed, centrifuged and the supernatant analyzed by LC-MS/MS (systems API4000). […]
Testosterone (1 μM) and Umbelliferone (1 μM) and Caffeine (1 μM) were used as reference compounds, being unstable and stable compounds respectively. If the hepatocyte stability values for these controls are not in the range determined by the historical data, the assay is not validated.

[5] = Caco-2 permeability assay; type: in vitro ADME; details: human, pH 7.4; Caco-2, BA

SMILES | TSOL pH 3.0 ([1]; time point 4 h) [μM] | TSOL pH 7.4 ([1]; time point 4 h) [μM] | TSOL pH 3.0 ([1]; time point 24 h) [μM] | TSOL pH 7.4 ([1]; time point 24 h) [μM] | TSOL FaSSIF pH 6.5 ([2]; time point 4 h) [μM] | TSOL FeSSIF pH 5.0 ([2]; time point 4 h) [μM] | TSOL FaSSIF pH 6.5 ([2]; time point 24 h) [μM] | TSOL FeSSIF pH 5.0 ([2]; time point 24 h) [μM] | microsomal CLint at 1 µM [3] [µL/min/mg] | hepatocyte CLint at 1 µM [4] [µL/min/1e6 cells] | Papp B→A at 90 min, 10 µM [5] [×10⁻⁶ cm/s]
CC(C)Cc1cc(F)c(-c2nn[nH]n2)c(N2CCN(Cc3cccnn3)[C@@H](C)C2)c1 [Compound A-174, 3-[[(2S)-4-[3-fluoro-5-isobutyl-2-(2H-tetrazol-5-yl)phenyl]-2-methyl-piperazin-1-yl]methyl]pyridazine] | ≥400 | >400 | ≥400 | >400 | >400 | >400 | >400 | >400 | < 11.7 | < 5.1 | 2.4
CCC1CN(c2cc(CC(C)C)cc(F)c2-c2nn[nH]n2)CCN1Cc1cccnn1 (centres unmarked) [Compound A-178, 3-[[2-ethyl-4-[3-fluoro-5-isobutyl-2-(2H-tetrazol-5-yl)phenyl]piperazin-1-yl]methyl]pyridazine] | – | – | – | – | – | – | – | – | – | – | 8.6
CC(C)Cc1cc(F)c(-c2nn[nH]n2)c(N2CCN(Cc3ccccn3)[C@@H](C)C2)c1 [Compound A-217, (2S)-4-[3-fluoro-5-isobutyl-2-(2H-tetrazol-5-yl)phenyl]-2-methyl-1-(2-pyridylmethyl)piperazine] | – | – | – | – | – | – | – | – | < 11.5 | < 5.1 | –
